Test results from US20240217961A1 (MONOPTEROS THERAPEUTICS, INC., priority 2021, published 2024).
“Also recorded” adds a separate entry of the source. One block for each molecule: values may come before it.

Legend:
[1] = Excipient compatibility study of milled API in binary mixtures (40° C./75% R.H. open, 60° C. closed; HPLC, XRPD, appearance); type: physicochemical
Experimental: Samples were set up at each of these two conditions: 40° C./75% R.H. open, and 60° ° C., closed. Three sampling time points (initial, 2 weeks, and 4 weeks) are specified in Table 15.
The API was set up as a control at each time point and each condition. For the pure excipients, only one bulk sample was set up at each condition. They were analyzed at the initial time point and at other time points if degradation of the active substance was observed. For the 15 binary mixtures, triplicate samples were set up at each time point/condition. Two samples were analyzed for purity and XRPD test, and the third one was kept as a contingency sample. The appearance and XRPD of samples under each condition were recorded at each time point.
The binary mixture was set up in duplicate.
Excipient blank controls: Each excipient blank was weighed into a 40 mL clear glass vial as excipient blank control. The excipient blank was set up as a single sample.
API control: Approximate: 13.8 mg of API was weighed into a 40 mL clear glass vial. The API control was set up in duplicate.
All the samples for open condition storage were put into an uncapped clear glass vial. The mouth of vials were covered by aluminum foil with pinholes, to avoid cross-contamination, and then stored in the stability chamber. The samples were stored at each condition 40° C./75% R.H. open and 60° C. close conditions and monitored for physical appearance, XRPD, impurities/related substances and assay at each time point, respectively.
All samples at 40° C./75% R.H., and 60° C. for 2 weeks and 4 weeks, were pulled out and cooled to room temperature for physical appearance, total related substances (TRS) and assay analysis. The diluent was accurately added into 40 ml vials and then the solution was sonicated for 10 minutes to facilitate dissolution of the API. Then 1 mL solution was taken out and centrifuged at 14000 rpm for 5 min for twice to separate some undissolved excipients, and then the concentration of supernatants were analyzed by HPLC instrument. The recovery and TRS results of excipient compatibility study at 40° C./75% R.H., and 60° C. are shown in Table 9, and the results of the complete impurity content and XRPD result are listed in Table 7.

[2] = Hygroscopicity: storage at 92.5% RH for 1 week, weight loss by TGA; type: physicochemical; conditions: for 92.5% RH for 1W (by TGA,%): weight loss by TGA at 145° C. after 92.5% RH for 1 week; for 92.5% RH for 1W, observation: after 92.5% RH for 1 week, Deliqu means deliquescent
[3] = Dynamic Vapor Sorption (DVS) at 25° C.; conditions: for DVS Result 95% RH: 0(120 min)-95% RH(180 min), dm/dt 0.002%
[4] = Solubility at 25° C., 24 h, in SGF, FaSSIF, FeSSIF and water; type: physicochemical
[5] = 70% RH, 25° C., method 50-90-0-50% RH, dm/dt = 0.01%

Molecule: CN1CCCC(CN2c3ccccc3Sc3ccccc32)C1.O=C(O)CCC(=O)O (stereo not shown) [API control]
Assay (%) ([1]; 40° C./75% RH open, 2 weeks): 100.82%
TRS (%) (total related substances) ([1]; 40° C./75% RH open, 2 weeks): 0.18%
XRPD ([1]; 40° C./75% RH open, 2 weeks): No change
Assay (%) ([1]; 40° C./75% RH open, 4 weeks): 100.08%
TRS (%) (total related substances) ([1]; 40° C./75% RH open, 4 weeks): 0.12%
XRPD ([1]; 40° C./75% RH open, 4 weeks): No change
Assay (%) ([1]; 60° C. close, 2 weeks): 99.70%
TRS (%) (total related substances) ([1]; 60° C. close, 2 weeks): 0.18%
XRPD ([1]; 60° C. close, 2 weeks): No change
Assay (%) ([1]; 60° C. close, 4 weeks): 102.38%
TRS (%) (total related substances) ([1]; 60° C. close, 4 weeks): 0.13%
XRPD ([1]; 60° C. close, 4 weeks): No change
Assay (%) ([1]; Initial 0 day): 100.00%
TRS (%) (total related substances) ([1]; Initial 0 day): 0.14%

Molecule: CN1CCCC(CN2c3ccccc3Sc3ccccc32)C1.O=C(O)CCCCC(=O)O (stereo not shown) [Adipate]
92.5% RH for 1W (by TGA,%) [2]: 0.6% at

92.5% RH for 1W (by TGA,%) [2]: 2.4% at
DVS Result 95% RH ([3]; 25° C.): 16.84%
Molecule: N[C@@H](CCC(=O)O)C(=O)O [Glutamate]

Molecule: CN1CCCC(CN2c3ccccc3Sc3ccccc32)C1.Cl (stereo not shown) [Hydrochloride, reference compound]
behaviour under long term humidity conditions ([2]; 25° C., 92.5% RH for one week): deliquescent
92.5% RH for 1W, observation [2]: Deliqu
moisture absorbed by DVS ([3]; 25° C. and 95% RH for about 5 hours): 16.9 wt %
moisture absorbed at 80% RH ([3]; 80% RH at 25° C.): 0.85%

Molecule: CN1CCCC(CN2c3ccccc3Sc3ccccc32)C1.O=C(O)CC(O)C(=O)O (stereo not shown) [Malate]
92.5% RH for 1W, observation [2]: Deliqu

Molecule: CN1CCCC(CN2c3ccccc3Sc3ccccc32)C1.O=P(O)(O)O (stereo not shown) [Phosphate]
92.5% RH for 1W (by TGA,%) [2]: 1.3% at
DVS Result 95% RH ([3]; 25° C.): 5.18%

92.5% RH for 1W (by TGA,%) [2]: 2.3% at 145 °C
Molecule: O=S(=O)(O)O [Sulfate]
92.5% RH for 1W, observation [2]: Discoloration,; also recorded: Agglomerate

Molecule: CN1CCCC(CN2c3ccccc3Sc3ccccc32)C1.O=C(O)C(O)C(O)C(=O)O (stereo not shown) [Tartarate Pattern I]
92.5% RH for 1W, observation [2]: Deliqu

92.5% RH for 1W (by TGA,%) [2]: 0.4% at
DVS Result 95% RH ([3]; 25° C.): 1.87%
Molecule: (S)-mepazine succinate salt

92.5% RH for 1W (by TGA,%) [2]: 0.3% at
DVS Result 95% RH ([3]; 25° C.): 1.29%
DVS Desorp (%) [3, 5]: 0.13%
DVS Sorption (%) [3, 5]: 0.13%
Solubility 24 h ([4]; FaSSIF, pH 6.5): 9400 µg/mL
pH of solubility sample ([4]; FaSSIF, pH 6.5, 24 h): 3.63
pH of solubility sample ([4]; FaSSIF, pH 6.5, 24 h, target concentration 2 mg/mL): 5.48
Solubility 24 h ([4]; FaSSIF, pH 6.5, target concentration 2 mg/mL): > 2000 µg/mL
Solubility 24 h ([4]; FeSSIF, pH 5.0): 3400 µg/mL
pH of solubility sample ([4]; FeSSIF, pH 5.0, 24 h): 4.52
pH of solubility sample ([4]; FeSSIF, pH 5.0, 24 h, target concentration 2 mg/mL): 4.89
Solubility 24 h ([4]; FeSSIF, pH 5.0, target concentration 2 mg/mL): > 2000 µg/mL
Solubility 24 h ([4]; H2O): 3800 µg/mL
pH of solubility sample ([4]; H2O, 24 h): 3.49
pH of solubility sample ([4]; H2O, 24 h, target concentration 2 mg/mL): 3.80
Solubility 24 h ([4]; H2O, target concentration 2 mg/mL): > 2000 µg/mL
Solubility 24 h ([4]; SGF, pH 2.0): 7500 µg/mL
pH of solubility sample ([4]; SGF, pH 2.0, 24 h): 2.60
pH of solubility sample ([4]; SGF, pH 2.0, 24 h, target concentration 2 mg/mL): 1.99
Solubility 24 h ([4]; SGF, pH 2.0, target concentration 2 mg/mL): > 2000 µg/mL
Molecule: Fumarate
